# Laboratory results: patent US10669258B2, “3-sulfonyl-5-aminopyridine-2,4-diol APJ agonists” (BRISTOL-MYERS SQUIBB COMPANY, priority 2016, dated 2020)
# Biological target: T1, human APJ receptor (Homo sapiens, UniProt P35414)
# T1 construct: expressed in transfected cells; host or cells: HEK293
# T1 sequence (P35414 1-380): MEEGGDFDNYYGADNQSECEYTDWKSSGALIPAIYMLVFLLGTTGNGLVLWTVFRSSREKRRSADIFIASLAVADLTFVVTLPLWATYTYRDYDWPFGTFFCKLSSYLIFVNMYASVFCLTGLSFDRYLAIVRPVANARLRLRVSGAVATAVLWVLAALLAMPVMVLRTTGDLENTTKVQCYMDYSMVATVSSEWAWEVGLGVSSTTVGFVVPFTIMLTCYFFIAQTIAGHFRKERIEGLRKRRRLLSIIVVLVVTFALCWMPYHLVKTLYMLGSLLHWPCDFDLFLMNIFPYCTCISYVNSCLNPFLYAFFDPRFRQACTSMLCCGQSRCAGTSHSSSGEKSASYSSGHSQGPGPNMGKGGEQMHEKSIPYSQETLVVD
# Experiment: Intracellular cAMP accumulation assay (APJ hcAMP, HTRF)
# Format: cell-based
# Conditions: HEK293 cells stably expressing human APJ receptor; inhibition of forskolin-mediated cAMP production; Table 1; read-out: hAPJ cAMP EC50 Potency range
# In short: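 Inhibition of forskolin (2 μM)-driven cAMP, with […], measured by HTRF after 30 min room-temperature compound exposure of stably transfected HEK293 cells. cAMP read from a standard curve; variable-slope fit gives EC50, and maximal inhibition is normalised to (Pyr1)apelin-13 as 100%.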
smiles,measurement,value
"CCCCc1nc(O)c(S(=O)(=O)c2ccccc2)c(O)c1N(CC)c1ccccc1 [Example 084, 6-butyl-5-(ethyl(phenyl)amino)-3-(phenylsulfonyl)pyridine-2,4-diol]",EC50,10 to 100 nM
"CCCCc1nc(O)c(S(=O)(=O)c2ccc(-c3ccccc3C(N)=O)cc2)c(O)c1N(CC)c1ccccc1 [Example 085, 4′-((6-butyl-5-(ethyl(phenyl)amino)-2,4-dihydroxypyridin-3-yl)sulfonyl)-[1,1′-biphenyl]-2-carboxamide]",EC50,0.01 to 10 nM
"CCCCc1nc(O)c(S(=O)(=O)c2ccc(-c3ccc(F)nc3C)cc2)c(O)c1N(CC)c1ccccc1 [Example 086, 6-butyl-5-(ethyl(phenyl)amino)-3-((4-(6-fluoro-2-methylpyridin-3-yl)phenyl)sulfonyl)pyridine-2,4-diol]",EC50,0.01 to 10 nM
"CCCCc1nc(O)c(S(=O)(=O)c2ccc(-c3ccccc3COC)cc2)c(O)c1N(CC)c1ccccc1 [Example 087, 6-butyl-5-(ethyl(phenyl)amino)-3-((2′-(methoxymethyl)-[1,1′-biphenyl]-4-yl)sulfonyl)pyridine-2,4-diol]",EC50,0.01 to 10 nM
"CCCCc1nc(O)c(S(=O)(=O)c2ccc(-c3ccccc3)cc2)c(O)c1N(CC)c1ccccc1 [Example 088, 3-([1,1′-biphenyl]-4-ylsulfonyl)-6-butyl-5-(ethyl(phenyl)amino)pyridine-2,4-diol]",EC50,10 to 100 nM
"CCCCc1nc(O)c(S(=O)(=O)c2ccc(-c3ccncc3C)cc2)c(O)c1N(C)c1cccc(C)c1 [Example 090, 6-butyl-5-(methyl(m-tolyl)amino)-3-((4-(3-methylpyridin-4-yl)phenyl)sulfonyl)pyridine-2,4-diol]",EC50,0.01 to 10 nM
"CCCCc1nc(O)c(S(=O)(=O)c2ccc(-c3ccnc(F)c3C)cc2)c(O)c1N(C)c1cccc(C)c1 [Example 091, 6-butyl-3-((4-(2-fluoro-3-methylpyridin-4-yl)phenyl)sulfonyl)-5-(methyl(m-tolyl)amino)pyridine-2,4-diol]",EC50,0.01 to 10 nM
"CCCCc1nc(O)c(S(=O)(=O)c2ccc(-c3ccnc(F)c3C)cc2)c(O)c1N(C)c1ccc(C)cc1 [Example 092, 6-butyl-3-((4-(2-fluoro-3-methylpyridin-4-yl)phenyl)sulfonyl)-5-(methyl(p-tolyl)amino)pyridine-2,4-diol]",EC50,0.01 to 10 nM
"CCCCc1nc(O)c(S(=O)(=O)c2ccc(Br)cc2)c(O)c1N(C)c1cccc(C)c1 [Example 093, 3-((4-bromophenyl)sulfonyl)-6-butyl-5-(methyl(m-tolyl)amino)pyridine-2,4-diol]",EC50,10 to 100 nM
"CCCCc1nc(O)c(S(=O)(=O)c2ccc(-c3ccncc3C)cc2)c(O)c1N(C)c1ccc(C)cc1 [Example 094, 6-butyl-5-(methyl(p-tolyl)amino)-3-((4-(3-methylpyridin-4-yl)phenyl)sulfonyl)pyridine-2,4-diol]",EC50,0.01 to 10 nM
"CCCCc1nc(O)c(S(=O)(=O)c2ccc(-c3ccc(F)nc3C)cc2)c(O)c1N(C)c1cccc(C)c1 [Example 095, 6-butyl-3-((4-(6-fluoro-2-methylpyridin-3-yl)phenyl)sulfonyl)-5-(methyl(m-tolyl)amino)pyridine-2,4-diol]",EC50,10 to 100 nM
"CCCCc1nc(O)c(S(=O)(=O)c2ccc(-c3cccnc3C)cc2)c(O)c1N(C)c1cccc(C)c1 [Example 096, 6-butyl-5-(methyl(m-tolyl)amino)-3-((4-(2-methylpyridin-3-yl)phenyl)sulfonyl)pyridine-2,4-diol]",EC50,0.01 to 10 nM
"CCCCc1nc(O)c(S(=O)(=O)c2ccc(-c3cccnc3C)cc2)c(O)c1N(C)c1ccc(C)cc1 [Example 097, 6-butyl-5-(methyl(p-tolyl)amino)-3-((4-(2-methylpyridin-3-yl)phenyl)sulfonyl)pyridine-2,4-diol]",EC50,10 to 100 nM
"CCCCc1nc(O)c(S(=O)(=O)c2ccc(-n3cc(C)ccc3=O)cc2)c(O)c1N(C)c1ccc(C)cc1 [Example 098, 1-(4-((6-butyl-2,4-dihydroxy-5-(methyl(p-tolyl)amino)pyridin-3-yl)sulfonyl)phenyl)-5-methylpyridin-2(1H)-one]",EC50,0.01 to 10 nM
"CCCCc1nc(O)c(S(=O)(=O)c2ccc(-n3cc(C)ccc3=O)cc2)c(O)c1N(C)c1cccc(C)c1 [Example 099, 1-(4-((6-butyl-2,4-dihydroxy-5-(methyl(m-tolyl)amino)pyridin-3-yl)sulfonyl)phenyl)-5-methylpyridin-2(1H)-one]",EC50,10 to 100 nM
"CCCCc1nc(O)c(S(=O)(=O)c2ccc(C3CC3)cc2)c(O)c1N(C)c1ccc(C)cc1 [Example 100, 6-butyl-3-((4-cyclopropylphenyl)sulfonyl)-5-(methyl(p-tolyl)amino)pyridine-2,4-diol]",EC50,10 to 100 nM
"CCCCc1nc(O)c(S(=O)(=O)c2ccc(-c3cccnc3C)cc2)c(O)c1N(C)c1cccc(F)c1 [Example 101, 6-butyl-5-((3-fluorophenyl)(methyl)amino)-3-((4-(2-methylpyridin-3-yl)phenyl)sulfonyl)pyridine-2,4-diol]",EC50,0.01 to 10 nM
"CCCCc1nc(O)c(S(=O)(=O)c2ccc(-c3cccnc3C)cc2)c(O)c1N(C)c1cccc(Cl)c1 [Example 102, 6-butyl-5-((3-chlorophenyl)(methyl)amino)-3-((4-(2-methylpyridin-3-yl)phenyl)sulfonyl)pyridine-2,4-diol]",EC50,10 to 100 nM
"CCCCc1nc(O)c(S(=O)(=O)c2ccc(-c3ccnc(F)c3C)cc2)c(O)c1N(C)c1ccc(Cl)cc1 [Example 103, 6-butyl-5-((4-chlorophenyl)(methyl)amino)-3-((4-(2-fluoro-3-methylpyridin-4-yl)phenyl)sulfonyl)pyridine-2,4-diol]",EC50,0.01 to 10 nM
"CCCCc1nc(O)c(S(=O)(=O)c2ccc(-c3ccncc3C)cc2)c(O)c1N(C)c1cccc(F)c1 [Example 104, 6-butyl-5-((3-fluorophenyl)(methyl)amino)-3-((4-(3-methylpyridin-4-yl)phenyl)sulfonyl)pyridine-2,4-diol]",EC50,0.01 to 10 nM
"CCCCc1nc(O)c(S(=O)(=O)c2ccc(-c3ccc(F)nc3C)cc2)c(O)c1N(C)c1cccc(Cl)c1 [Example 105, 6-butyl-5-((3-chlorophenyl)(methyl)amino)-3-((4-(6-fluoro-2-methylpyridin-3-yl)phenyl)sulfonyl)pyridine-2,4-diol]",EC50,10 to 100 nM
"CCCCc1nc(O)c(S(=O)(=O)c2ccc(-c3ccnc(F)c3C)cc2)c(O)c1N(C)c1cccc(F)c1 [Example 106, 6-butyl-3-((4-(2-fluoro-3-methylpyridin-4-yl)phenyl)sulfonyl)-5-((3-fluorophenyl)(methyl)amino)pyridine-2,4-diol]",EC50,0.01 to 10 nM
"CCCCc1nc(O)c(S(=O)(=O)c2ccc(-c3ccnc(F)c3C)cc2)c(O)c1N(C)c1cccc(Cl)c1 [Example 107, 6-butyl-5-((3-chlorophenyl)(methyl)amino)-3-((4-(2-fluoro-3-methylpyridin-4-yl)phenyl)sulfonyl)pyridine-2,4-diol]",EC50,0.01 to 10 nM
"CCCCc1nc(O)c(S(=O)(=O)c2ccc(-c3ccncc3C)cc2)c(O)c1N(C)c1ccc(Cl)cc1 [Example 108, 6-butyl-5-((4-chlorophenyl)(methyl)amino)-3-((4-(3-methylpyridin-4-yl)phenyl)sulfonyl)pyridine-2,4-diol]",EC50,0.01 to 10 nM
"CCCCc1nc(O)c(S(=O)(=O)c2ccc(-c3ccc(F)nc3C)cc2)c(O)c1N(C)c1cccc(F)c1 [Example 109, 6-butyl-3-((4-(6-fluoro-2-methylpyridin-3-yl)phenyl)sulfonyl)-5-((3-fluorophenyl)(methyl)amino)pyridine-2,4-diol]",EC50,10 to 100 nM
"CCCCc1nc(O)c(S(=O)(=O)c2ccc(-c3ccncc3C)cc2)c(O)c1N(C)c1cccc(Cl)c1 [Example 110, 6-butyl-5-((3-chlorophenyl)(methyl)amino)-3-((4-(3-methylpyridin-4-yl)phenyl)sulfonyl)pyridine-2,4-diol]",EC50,0.01 to 10 nM
"CCCCc1nc(O)c(S(=O)(=O)c2ccc(-c3cccnc3C)cc2)c(O)c1N(C)c1ccc(Cl)cc1 [Example 111, 6-butyl-5-((4-chlorophenyl)(methyl)amino)-3-((4-(2-methylpyridin-3-yl)phenyl)sulfonyl)pyridine-2,4-diol]",EC50,0.01 to 10 nM
"CCCCc1nc(O)c(S(=O)(=O)c2ccc(-c3ccncc3C)cc2)c(O)c1N(C)c1ccccc1F [Example 112, 6-butyl-5-((2-fluorophenyl)(methyl)amino)-3-((4-(3-methylpyridin-4-yl)phenyl)sulfonyl)pyridine-2,4-diol]",EC50,0.01 to 10 nM
"CCCCc1nc(O)c(S(=O)(=O)c2ccc(-c3ccncc3C)cc2)c(O)c1N(C)c1cccc(C#N)c1 [Example 113, 3-((2-butyl-4,6-dihydroxy-5-((4-(3-methylpyridin-4-yl)phenyl)sulfonyl)pyridin-3-yl)(methyl)amino)benzonitrile]",EC50,0.01 to 10 nM
"CCN(c1ccccc1)c1c(-c2cccc(C)c2)nc(O)c(S(=O)(=O)c2ccc(-c3ccc(F)nc3C)cc2)c1O [Example 114, 5-(ethyl(phenyl)amino)-3-((4-(6-fluoro-2-methylpyridin-3-yl)phenyl)sulfonyl)-6-(m-tolyl)pyridine-2,4-diol]",EC50,0.01 to 10 nM
"CCCCc1nc(O)c(S(=O)(=O)c2ccc(-c3ccc(F)nc3C)cc2)c(O)c1N1CCCOc2ccccc21 [Example 115, 6-butyl-5-(3,4-dihydrobenzo[b][1,4]oxazepin-5(2H)-yl)-3-((4-(6-fluoro-2-methylpyridin-3-yl)phenyl)sulfonyl)pyridine-2,4-diol]",EC50,10 to 100 nM
